Data from patent publication US20210179569A1, “BENZAMIDE COMPOUNDS AND THEIR USE AS HERBICIDES II” (BASF SE, priority 2017, published 2021).

What was measured:
Assay in all cases: post-emergence greenhouse herbicidal test
Type in all cases: in vivo
Conditions in all cases: application rate 250 g/ha, 100 = complete destruction, 0 = no damage
[1] = test system: CHEAL (Chenopodium album)
Description: (§1) The seeds of the test plants were sown separately for each species. For the post-emergence treatment, the test plants were first grown to a height of 3 to 15 cm, depending on the plant habit, and only then treated with the active ingredients which had been suspended or emulsified in water. For this purpose, the test plants were either sown directly and grown in the same containers, or they were first grown separately as seedlings and transplanted into the test containers a few days prior to treatment. Depending on the species, the plants were kept at 10-25° C. or 20-25° C., respectively. The test period extended over 2 to 4 weeks. During this time, the plants were tended, and their response to the individual treatments was evaluated. Evaluation was carried out using a scale from 0 to 100. 100 means no emergence of the plants, or complete destruction of at least the aerial moieties, and 0 means no damage, or normal course of growth. A good herbicidal activity is given at values of at least 70 and a very good herbicidal activity is given at values of at least 85. At an application rate of 250 g/ha the following compounds were tested in post-emergence tests against: ECHCG (Echinocloa crus-galli) AMARE (Amaranthus retroflexus) CHEAL (Chenopodium album)

[2] = test system: ECHCG (Echinocloa crus-galli)
Description: as §1

[3] = test system: AMARE (Amaranthus retroflexus)
Description: as §1

Cn1nnnc1NC(=O)c1cc(Cl)cc(NC(=O)N(C2CC2)C2CC2)c1Cl [Example 1, 2,5-dichloro-3-(dicyclopropylcarbamoylamino)-N-(1-methyltetrazol-5-yl)benzamide]
>80: herbicidal activity against CHEAL (scale from 0 to 100) [1] | herbicidal activity against ECHCG (scale from 0 to 100) [2] | herbicidal activity against AMARE (scale from 0 to 100) [3]

CN(CC(F)(F)F)C(=O)Nc1cc(Cl)cc(C(=O)Nc2nnnn2C)c1Cl [Example 2, 2,5-dichloro-3-[(2,2,2-trifluoroethyl)(methyl)carbamoylamino]-N-(1-methyltetrazol-5-yl)benzamide]
>80: herbicidal activity against CHEAL (scale from 0 to 100) [1] | herbicidal activity against ECHCG (scale from 0 to 100) [2] | herbicidal activity against AMARE (scale from 0 to 100) [3]
